From US20190328691A1, “ANTIBIOTIC THERAPY” (Boulos & Cooper Pharmaceuticals Pty Ltd, priority 2015, published 2019)
Like-named read-outs stand apart in the source and are kept apart here.

Experiments:
[1] = system: Staphylococcus aureus (ATCC 29213); assay: Checkerboard combination / MIC assay with S. aureus ATCC 29213; assay type: cell-based; conditions: S. aureus ATCC 29213; for MIC: Staphylococcus aureus, read-out: MIC of antibiotic alone; for mean FICI of combination with Chlopam / mean FICI of combination with Ramizol: mean of all pairwise combinations; for mean FICI of combination with Ramizol: labelled antibiotic + Ramizol
Summary of the method: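 CLSI broth microdilution checkerboard in CAMHB, final inoculum 5×10^5 CFU/mL, 2% DMSO. Ramizol or Chlopam (11-point 2-fold) crossed with commercial antibiotics (7-point), each starting at 4× MIC; synergy assessed by FIC index (sum of MIC-in-combination/MIC-alone ratios; ≤0.5 synergy, >4 antagonism).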

[2] = system: Staphylococcus aureus (BAA-1717); assay: Checkerboard combination / MIC assay with S. aureus BAA-1717 (MRSA); assay type: cell-based; conditions: for Effect of individual antibiotic combinations: S. aureus BAA-1717; for MIC: Staphylococcus aureus, ATCC BAA-1717 / BAA-1717, Table 4, checkerboard series with Chlopam, read-out: MIC of antibiotic alone; for mean FICI of combination with Chlopam: labelled antibiotic + Chlopam; for mean FICI of combination with Chlopam / mean FICI of combination with Ramizol: mean of all pairwise combinations; for mean FICI of combination with Ramizol: labelled antibiotic + Ramizol
Summary of the method: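 CLSI broth microdilution checkerboard in CAMHB (5×10^5 CFU/mL, 2% DMSO final). Ramizol or Chlopam was tested in 11-point two-fold series against 7-point antibiotic titrations, starting at 4× MIC.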

[3] = Chlopam 0.003906 μg/mL + labelled antibiotic at MIC of same cell
[4] = Chlopam 0.0078125 μg/mL + labelled antibiotic at MIC of same cell
[5] = Chlopam 0.015625 μg/mL + labelled antibiotic at MIC of same cell
[6] = Chlopam 0.25 μg/mL + labelled antibiotic at MIC of same cell
[7] = Ramizol 0.015625 μg/mL + labelled antibiotic at MIC of same cell
[8] = Ramizol 0.03125 μg/mL + labelled antibiotic at MIC of same cell
[9] = Ramizol 0.0625 μg/mL + labelled antibiotic at MIC of same cell
[10] = Ramizol 0.125 μg/mL + labelled antibiotic at MIC of same cell
[11] = Ramizol 0.25 μg/mL + labelled antibiotic at MIC of same cell
[12] = ATCC29213, Table 4, checkerboard series with Chlopam
[13] = ATCC29213, Table 7, checkerboard series with Ramizol
[14] = Chlopam 0.001953 μg/mL + labelled antibiotic at MIC of same cell, S. aureus ATCC BAA-1717
[15] = Chlopam 0.001953 μg/mL, S. aureus ATCC BAA-1717
[16] = Chlopam 0.003906 μg/mL + labelled antibiotic at MIC of same cell, S. aureus ATCC BAA-1717
[17] = Chlopam 0.003906 μg/mL, S. aureus ATCC BAA-1717
[18] = Chlopam 0.0078125 μg/mL + labelled antibiotic at MIC of same cell, S. aureus ATCC BAA-1717
[19] = Chlopam 0.0078125 μg/mL, S. aureus ATCC BAA-1717
[20] = Chlopam 0.015625 μg/mL + labelled antibiotic at MIC of same cell, S. aureus ATCC BAA-1717
[21] = Chlopam 0.015625 μg/mL, S. aureus ATCC BAA-1717
[22] = Ramizol 0.015625 μg/mL + labelled antibiotic at MIC of same cell, S. aureus ATCC BAA-1717
[23] = Ramizol 0.015625 μg/mL, S. aureus ATCC BAA-1717
[24] = Ramizol 0.03125 μg/mL + labelled antibiotic at MIC of same cell, S. aureus ATCC BAA-1717
[25] = Ramizol 0.03125 μg/mL, S. aureus ATCC BAA-1717
[26] = Ramizol 0.0625 μg/mL + labelled antibiotic at MIC of same cell, S. aureus ATCC BAA-1717
[27] = Ramizol 0.0625 μg/mL, S. aureus ATCC BAA-1717
[28] = Ramizol 0.125 μg/mL + labelled antibiotic at MIC of same line, S. aureus ATCC BAA-1717
[29] = Ramizol 0.125 μg/mL, S. aureus ATCC BAA-1717

In the case of `C/C(=C\C(=O)OCCCCCCCCC(=O)O)C[C@@H]1OC[C@H](C[C@@H]2O[C@H]2[C@@H](C)[C@H](C)O)[C@@H](O)[C@H]1O` [Mupirocin], the “FICI of combination with Chlopam” value [1, 3] is reported as 1.0, the “MIC of antibiotic in combination with Chlopam” value (“MIC … with Chlopam” below) ([1]; Chlopam 0.003906 μg/mL) is reported as 0.5 µg/mL and the “FICI of combination with Chlopam” value [1, 4] is reported as 1.0. The “MIC … with Chlopam” value ([1]; Chlopam 0.0078125 μg/mL) was 0.5 µg/mL, the “FICI of combination with Chlopam” value [1, 5] was 1.0 and the “MIC … with Chlopam” value ([1]; Chlopam 0.015625 μg/mL) was 0.5 µg/mL. The “FICI of combination with Chlopam” value [1, 6] was 1.0, the “MIC … with Chlopam” value ([1]; Chlopam 0.25 μg/mL) was 0.25 µg/mL and the “Effect of individual antibiotic combinations” value ([1]; Chlopam and mupirocin: 0.003901 and 0.5, 0.0078125 and 0.5, 0.015625 and 0.5, 0.25 and 0.25 μg/mL) was “additive effect”. For the same compound, the “FICI of combination with Ramizol” value [1, 7] was 1.0, the “MIC of antibiotic in combination with Ramizol” value (“MIC … with Ramizol” below) ([1]; Ramizol 0.015625 μg/mL) was 0.5 µg/mL and the “FICI of combination with Ramizol” value [1, 8] was 1.0. For the same compound, the “MIC … with Ramizol” value ([1]; Ramizol 0.03125 μg/mL) was 0.5 µg/mL, the “FICI of combination with Ramizol” value [1, 9] was 1.0 and the “MIC … with Ramizol” value ([1]; Ramizol 0.0625 μg/mL) was 0.5 µg/mL. For the same compound, the “FICI of combination with Ramizol” value [1, 10] was 1.0, the “MIC … with Ramizol” value ([1]; Ramizol 0.125 μg/mL) was 0.5 µg/mL and the “FICI of combination with Ramizol” value [1, 11] was 1.0. The “MIC … with Ramizol” value ([1]; Ramizol 0.25 μg/mL) was 0.5 µg/mL, the “Effect of individual antibiotic combinations” value ([1]; Ramizol and mupirocin: 0.015625 and 0.5, 0.03125 and 0.5, 0.0625 and 0.5, 0.125 and 0.5, 0.25 and 0.5 μg/mL) was “additive effect” and the MIC [1, 12] was 0.5 µg/mL. The MIC [1, 13] was 0.5 µg/mL, the “mean FICI of combination with Chlopam” value ([1]; labelled antibiotic + Chlopam) was 1.1 and the “mean FICI of combination with Ramizol” value [1] was 1.1. The “FICI of combination with Chlopam” value [2, 14] was 1.0, the “MIC … with Chlopam” value [2, 15] was 0.5 µg/mL and the “FICI of combination with Chlopam” value [2, 16] was 1.0. For the same compound, the “MIC … with Chlopam” value [2, 17] was 0.5 µg/mL, the “FICI of combination with Chlopam” value [2, 18] was 1.0 and the “MIC … with Chlopam” value [2, 19] was 0.5 µg/mL. For the same compound, the “FICI of combination with Chlopam” value [2, 20] was 1.0, the “MIC … with Chlopam” value [2, 21] was 0.5 µg/mL and the “FICI of combination with Chlopam” value ([2]; Chlopam 0.5 μg/mL + labelled antibiotic at MIC of same line, S. aureus ATCC BAA-1717) was 1.0. For the same compound, the “MIC … with Chlopam” value ([2]; Chlopam 0.5 μg/mL, S. aureus ATCC BAA-1717) was 0.016 µg/mL, the “Effect of individual antibiotic combinations” value ([2]; Chlopam and mupirocin: 0.001953 and 0.5, 0.003901 and 0.5, 0.0078125 and 0.5, 0.015625 and 0.5, 0.5 and 0.016 μg/mL) was “additive effect” and the “FICI of combination with Ramizol” value [2, 22] was 1.0. The “MIC … with Ramizol” value [2, 23] was 0.5 µg/mL, the “FICI of combination with Ramizol” value [2, 24] was 1.0 and the “MIC … with Ramizol” value [2, 25] was 0.5 µg/mL. The “FICI of combination with Ramizol” value [2, 26] was 1.0, the “MIC … with Ramizol” value [2, 27] was 0.5 µg/mL and the “FICI of combination with Ramizol” value [2, 28] was 1.0. For the same compound, the “MIC … with Ramizol” value [2, 29] was 0.5 µg/mL, the “FICI of combination with Ramizol” value ([2]; Ramizol 4 μg/mL + labelled antibiotic at MIC of same cell, S. aureus ATCC BAA-1717) was 1.0 and the “MIC … with Ramizol” value ([2]; Ramizol 4 μg/mL, S. aureus ATCC BAA-1717) was 0.016 µg/mL. For the same compound, the “Effect of individual antibiotic combinations” value ([2]; Ramizol and mupirocin: 0.015625 and 0.5, 0.03125 and 0.5, 0.0625 and 0.5, 0.125 and 0.5, 4 and 0.016 μg/mL) was “additive effect”, the MIC ([2]; S. aureus ATCC BAA-1717) was 0.5 µg/mL and the “mean FICI of combination with Chlopam” value ([2]; S. aureus ATCC BAA-1717) was 1.2. For the same compound, the “mean FICI of combination with Ramizol” value ([2]; S. aureus ATCC BAA-1717) was “(1.2)”.

With `CC(=O)NC[C@H]1CN(c2ccc(N3CCOCC3)c(F)c2)C(=O)O1` [Linezolid] the “FICI of combination with Chlopam” value [1, 3] was 1.0, the “MIC … with Chlopam” value ([1]; Chlopam 0.003906 μg/mL) was 2 µg/mL and the “FICI of combination with Chlopam” value [1, 4] was 1.0. The “MIC … with Chlopam” value ([1]; Chlopam 0.0078125 μg/mL) was 2 µg/mL, the “FICI of combination with Chlopam” value [1, 5] was 1.0 and the “MIC … with Chlopam” value ([1]; Chlopam 0.015625 μg/mL) was 2 µg/mL. For the same compound, the “FICI of combination with Chlopam” value ([1]; Chlopam 0.125 μg/mL + labelled antibiotic at MIC of same line) was 0.8, the “MIC … with Chlopam” value ([1]; Chlopam 0.125 μg/mL) was 1 µg/mL and the “FICI of combination with Chlopam” value [1, 6] was 0.8. For the same compound, the “MIC … with Chlopam” value ([1]; Chlopam 0.25 μg/mL) was 0.5 µg/mL, the “FICI of combination with Chlopam” value ([1]; Chlopam 0.5 μg/mL + labelled antibiotic at MIC of same cell) was 0.6 and the “MIC … with Chlopam” value ([1]; Chlopam 0.5 μg/mL) was 0.25 µg/mL. The “Effect of individual antibiotic combinations” value ([1]; Chlopam and Linezolid: 0.003901 and 2, 0.0078125 and 2, 0.015625 and 2, 0.125 and 1, 0.25 and 0.5, 0.5 and 0.25 μg/mL) was “additive effect”, the “FICI of combination with Ramizol” value [1, 7] was 1.0 and the “MIC … with Ramizol” value ([1]; Ramizol 0.015625 μg/mL) was 4 µg/mL. The “FICI of combination with Ramizol” value [1, 8] was 1.0, the “MIC … with Ramizol” value ([1]; Ramizol 0.03125 μg/mL) was 4 µg/mL and the “FICI of combination with Ramizol” value [1, 9] was 1.0. For the same compound, the “MIC … with Ramizol” value ([1]; Ramizol 0.0625 μg/mL) was 4 µg/mL, the “FICI of combination with Ramizol” value [1, 10] was 1.0 and the “MIC … with Ramizol” value ([1]; Ramizol 0.125 μg/mL) was 4 µg/mL. For the same compound, the “FICI of combination with Ramizol” value [1, 11] was 1.0, the “MIC … with Ramizol” value ([1]; Ramizol 0.25 μg/mL) was 4 µg/mL and the “Effect of individual antibiotic combinations” value ([1]; Ramizol and linezolid: 0.015625 and 4, 0.03125 and 4, 0.0625 and 4, 0.125 and 4, 0.25 and 4 μg/mL) was “additive effect”. For the same compound, the MIC [1, 12] was 2 µg/mL, the MIC [1, 13] was 4 µg/mL and the “Effect of the combinations with Chlopam (by mean FICI)” value ([1]; labelled antibiotic + Chlopam) was “additive effect”. For the same compound, the “mean FICI of combination with Chlopam” value ([1]; labelled antibiotic + Chlopam) was 0.9, the “mean FICI of combination with Ramizol” value [1] was 1.1 and the “FICI of combination with Chlopam” value [2, 14] was 1.0. For the same compound, the “MIC … with Chlopam” value [2, 15] was 1 µg/mL, the “FICI of combination with Chlopam” value [2, 16] was 1.0 and the “MIC … with Chlopam” value [2, 17] was 1 µg/mL. For the same compound, the “FICI of combination with Chlopam” value [2, 18] was 1.0, the “MIC … with Chlopam” value [2, 19] was 1 µg/mL and the “FICI of combination with Chlopam” value [2, 20] was 1.0. For the same compound, the “MIC … with Chlopam” value [2, 21] was 1 µg/mL, the “Effect of individual antibiotic combinations” value ([2]; Chlopam and Linezolid: 0.001953 and 1, 0.003901 and 1, 0.0078125 and 1, 0.015625 and 1 μg/mL) was “additive effect” and the “FICI of combination with Ramizol” value [2, 22] was 1.0. The “MIC … with Ramizol” value [2, 23] was 1 µg/mL, the “FICI of combination with Ramizol” value [2, 24] was 1.0 and the “MIC … with Ramizol” value [2, 25] was 1 µg/mL. The “FICI of combination with Ramizol” value [2, 26] was 1.0, the “MIC … with Ramizol” value [2, 27] was 1 µg/mL and the “FICI of combination with Ramizol” value [2, 28] was 1.0. For the same compound, the “MIC … with Ramizol” value [2, 29] was 1 µg/mL, the “Effect of individual antibiotic combinations” value ([2]; Ramizol and linezolid: 0.015625 and 1, 0.03125 and 1, 0.0625 and 1, 0.125 and 1 μg/mL) was “additive effect” and the MIC ([2]; S. aureus ATCC BAA-1717) was 1 µg/mL. The “MIC of antibiotic alone” value ([2]; Table 7, checkerboard series with Ramizol, S. aureus ATCC BAA-1717) was 1 µg/mL, the “mean FICI of combination with Chlopam” value ([2]; S. aureus ATCC BAA-1717) was 1.2 and the “mean FICI of combination with Ramizol” value ([2]; S. aureus ATCC BAA-1717) was 1.2.
